Article PMC4674085, “Towards Prebiotic Catalytic Amyloids Using High Throughput Screening” (PLoS ONE, 2015)
Peptide text beside a SMILES is read from it.

Assay: Plate reader 4NPA hydrolysis kinetics of purified peptide amyloids at pH 7.3
Format: biochemical
Details: for k cat/K M = k 2 from linear fit to v 0 = [E]0 k 2[S]: pH 7.3, plate reader A400, triplicate (36 without replicates)
Method: The reaction buffer consisted of the same buffer as the fibrillization buffer without ZnCl2 and with 1.33 mM 4NPA prepared from a 100 mM stock in CH3CN. The samples of the amyloid library were mixed 1:3 with the reaction buffer yielding 40 μM peptide and, when present 250 μM zinc(II). The absorbance measurements were performed in a BMG Pherastar platereader with a 400 nm band-pass filter (10 nm bandwidth) in 96-well Nunclon Delta surface plates or 384-well Greiner Bio-One non-bind black μclear plates.
The kinetics assays performed on the purified peptides were prepared similarly except that the peptide concentration was 20 μM in the reaction. Furthermore, the various substrate concentrations and replicate samples were randomly distributed over the plate to minimize systematic errors. Various 4NPA concentrations (i.e. 0.1 mM, 0.2 mM, 0.4 mM, 0.6 mM, 1.0 mM) were added from a 100 times stock so that the final CH3CN concentration was always 1%. The linear part of the hydrolysis activity was fit with an extinction coefficient of ε = 9700 M^-1cm^-1 and corrected for the background reaction rate of buffer alone (v bg = 5.0 × 10^-6 Ms^-1) to obtain the initial reaction rate v 0. The average of the initial reaction rates at each substrate concentration were then fit to the Michaelis-Menten type kinetics to obtain k cat, K M and k cat/K M always calculated per monomer peptide. The background reaction rate was obtained similarly using 5 replicates.

| Compound | k cat/K M = k 2 from linear fit to v 0 = [E]0 k 2[S] (4NPA hydrolysis) [M⁻¹ s⁻¹] | zinc(II) dependence of 4NPA hydrolysis activity (pH 7.3) | k cat/K M (4NPA hydrolysis, pH 7.3 HEPES with zinc(II), 20 μM purified peptide, 0.1-1.0 mM 4NPA, 1% CH3CN, A400, Michaelis-Menten fit, per monomer peptide, triplicate (duplicate for 8, 27, 34, 35)) [M⁻¹ s⁻¹] | K M (4NPA hydrolysis, pH 7.3 HEPES with zinc(II), 20 μM purified peptide, Michaelis-Menten fit) [µM] | k cat (4NPA hydrolysis, pH 7.3 HEPES with zinc(II), 20 μM purified peptide, Michaelis-Menten fit, per monomer peptide) |
| --- | --- | --- | --- | --- | --- |
| CC(=O)N[C@@H](Cc1c[nH]cn1)C(=O)NCC(=O)N[C@@H](Cc1c[nH]cn1)C(N)=O [Peptide 36, Ac-HGH-CONH2] (Ac-His-Gly-His-NH2) | 0.041 ± 0.005 | not zinc(II)-dependent | – | – | – |
| Ac-IHIHIQI-NH2 [Peptide 34, Ac-IHIHIQI-CONH2, reference compound] | – | – | 15.76 ± 0.96 | 1570 ± 290 | 2.47±0.32 10^-2s^-1 |
| c1c[nH]cn1 [Imidazole, reference compound] | 0.199 ± 0.008 | – | – | – | – |
